Laboratory results from US9657017B2, “Crystal form of (R)-praziquantel and preparation method and application thereof” (TONGLI BIOMEDICAL CO., LTD., priority 2013, dated 2017).
In brackets after ≈: the same amount, converted by molar mass. Read-outs that look alike come from different tables or passages of the source.

Key:
[1] = Solubility of crystal forms in water and simulated gastric-intestinal fluid; assay type: physicochemical; details: 25° C.; for solubility at 18 h: thermodynamic from solid
Description: About 2 mg of each compound was respectively placed in several glass vials, and pure water, simulated gastric fluid (SGF), simulated intestinal fluid under fasted status (FaSSIF), and simulated intestinal fluid under fed status (FeSSIF) were respectively added to prepare a final sample concentration of 2 mg/mL. The samples were sonicated to be dispersed evenly and then rotated 360 degree-wise to equilibrate for 18 hours at room temperature (25° C.). After the equilibration, the samples were visually inspected to check whether they were completely dissolved, and then filtrated through […] filter membrane. The resulted filtrate was diluted with suitable solvent for HPLC analysis.

schistosoma japonicum = test: In vitro culture anti-schistosoma japonicum activity (worm activity inhibition); assay type: cell-based; details: for IC50: spasm or paralysis of schistosoma japonicum considered as active, in vitro culture 37° C., read-out: IC50 ± L95 (median inhibitory concentration, 95% confidence interval)
Description: Comparison of anti-schistosoma japonicum activity between the crystal forms of (R)-praziquantel and praziquantel in in vitro culture experiment, which was specifically as follow: […] An aliquot of the drug solution (5-50 μL) was transferred and diluted with culture medium (prepared by Tyrode's solution and calf serum at 9:1, pH 7.4, containing 100 IU/mL penicillin and 100 IU/mL streptomycin) to a desired concentration (0.0001-100 μg/mL). Japanese white rabbits and Kunming hybrid mice were infected with cercariae of schistosoma japonicum for 5-8 weeks. Under aseptic condition, mesenteric vein and liver were perfused with normal saline, and the recovered schistosomes were washed with Tyrode's solution twice and then transferred into culture medium and cultured at 37° C. for use. […] The worm activity and changes on body surface were observed under stereomicroscope and inverted microscope at room temperature. The active levels of worm were defined as below: • ++++ Worm twitching or rolling intensively; • +++ Worm wriggling or paroxysmally trembling frequently; • ++ Worm migrating freely with enterocinesia; • + Movement of worm weakened and enterocinesia disappeared; • ± No movement of worm was observed under stereomicroscope (×30), and slight movement of mouth and ventral suckers were observed under inverted microscope (×250); • − No movement of worm was observed under inverted microscope (×250); • wherein +++ and ++++ refer to worm excitement; ++ refers to normal worm activity; + and ± refers to inhibition of worm activity; worm was considered to death if the result was still negative after observing for 5 min.

clonorchis sinensis = test: In vivo anti-parasitic activity in SD rats infected with clonorchis sinensis
Description: Evaluation of in vivo anti-parasitic activity of (R)-praziquantel crystal form in SD rats infected with clonorchis sinensis, which was specifically as follow: Each of total 29 SD rats with 200˜300 g of body weight were given with 30 metacercariae of clonorchis sinensis via gavage intragastrically. On Day 35 post infection, fecal smear examination was conducted, and worm eggs of clonorchis sinensis were found in all of the smears which confirmed successful modeling. Subsequently, the rats were randomly divided into (R)-praziquantel group (n=14) and blank control group (n=15). […] Seven days after the end of the treatment, worms are recovered from the bile ducts under sterility condition. The averaged number of recovered worms, mean recovery rate of worms and cure rate after treatment were calculated, and the results are shown in Table 5.

[2] = rat, in vivo, po, 75 mg/kg
Description: Investigation on characteristic of the plasma concentrations of (R)-praziquantel crystal form in rats after oral administration, which was specifically as follow: […]

[3] = 100 mg/kg gavage twice a day for two days

Row | solubility at 18 h ([1]; FaSSIF (simulated intestinal fluid, fasted), equilibrated 18 hours, read-out: Average solubility) [µg/mL] | solubility at 18 h ([1]; FeSSIF (simulated intestinal fluid, fed), equilibrated 18 hours, read-out: Average solubility) [µg/mL] | solubility at 18 h ([1]; SGF (simulated gastric fluid), equilibrated 18 hours, read-out: Average solubility) [µg/mL] | solubility at 18 h ([1]; Water, equilibrated 18 hours, read-out: Average solubility) [µg/mL] | solubility at 18 h ([1]; water, SGF, FaSSIF and FeSSIF, range over media, read-out: solubility in water and in simulated gastro-intestinal fluid) [µg/mL] | IC50 (schistosoma japonicum) [µM] | Average solubility ([1]; FaSSIF (simulated intestinal fluid, fasted), equilibrated 18 hours) [µg/mL] | Average solubility ([1]; FeSSIF (simulated intestinal fluid, fed), equilibrated 18 hours) [µg/mL] | Average solubility ([1]; SGF (simulated gastric fluid), equilibrated 18 hours) [µg/mL] | Average solubility ([1]; Water, equilibrated 18 hours) [µg/mL] | IC50 relative to that of praziquantel crystal form (schistosoma japonicum; in vitro culture, P<0.01) | area under plasma concentration-time curve [2] [ng·h/mL] | peak plasma concentration [2] [ng/mL] | time to reach peak plasma concentration [2] [min] | SMILES | effect on schistosoma japonicum worms (schistosoma japonicum; in vitro culture) | Cure rate (clonorchis sinensis; [3]) [%] | Mean recovery rate of worms (clonorchis sinensis; [3]) [%] | No. of Cured animal (clonorchis sinensis; 100 mg/kg gavage twice a day for two days, 14 animals, worms recovered 7 days after treatment) | No. of Average of recovered worm, X ± SD (clonorchis sinensis; 100 mg/kg gavage twice a day for two days, worms from bile ducts) | worm body in rat feces (clonorchis sinensis; treatment group)
1 | 193 (≈ 618 µM) | 313 (≈ 1000 µM) | 192 (≈ 615 µM) | 199 (≈ 637 µM) | 190 to 310 (≈ 608 to 992 µM) | 0.042 ± 0.018 |  |  |  |  |  |  |  |  | O=C(C1CCCCC1)N1CC(=O)N2CCc3ccccc3C2C1 (racemic) [Praziquantel crystal form, praziquantel] | induce contraction and paralysis |  |  |  |  | 
2 |  |  |  |  |  | 0.008 ± 0.004 | 302 | 433 | 303 | 305 | ⅕ | 3572 ± 1793 | 3132 ± 1440 | 15 | O=C(C1CCCCC1)N1CC(=O)N2CCc3ccccc3[C@@H]2C1 [(R)-praziquantel crystal form, (R)-praziquantel] | induce contraction and paralysis | 100 | 0 | 14 | 0 | no worm body found
